# Results taken from ChEMBL document CHEMBL3124908, “Design, synthesis, and evaluation of novel heteroaromatic analogs of curcumin as anti-cancer agents” (Eur J Med Chem, 2014).
# Assays:
# DU-145 = assay: Cytotoxicity against human DU145 cells after 5 days by trypan blue exclusion assay; format: functional, cell-based; conditions: DU-145, 120 h
# PC-3 = assay: Cytotoxicity against human PC3 cells after 5 days by trypan blue exclusion assay; format: functional, cell-based; conditions: PC-3, 120 h
# A549 = assay: Cytotoxicity against human A549 cells after 5 days by trypan blue exclusion assay; format: functional, cell-based; conditions: A549, 120 h
# [1] = Cytotoxicity against human MCF10A cells up to 1 uM after 5 days by trypan blue exclusion assay; format: cell-based; conditions: mcf-10a, 120 h
# HeLa = assay: Cytotoxicity against human HeLa cells after 5 days by trypan blue exclusion assay; format: functional, cell-based; conditions: 120 h
# MDA-MB-231 = assay: Cytotoxicity against human MDA-MB-231 cells after 5 days by trypan blue exclusion assay; format: functional, cell-based; conditions: MDA-MB-231, 120 h
compound,measurement,setting,value
O=C1/C(=C/c2cscn2)CCC/C1=C\c1cscn1,IC50,DU-145,75 nM
same,IC50,PC-3,120 nM
Cc1nc(/C=C/C(=O)/C=C/c2coc(C)n2)co1,IC50,DU-145,750 nM
same,IC50,PC-3,840 nM
CN1C/C(=C\c2cscn2)C(=O)/C(=C/c2cscn2)C1,IC50,DU-145,430 nM
same,IC50,PC-3,800 nM
CCC(C)n1ccnc1/C=C1\CCC/C(=C\c2nccn2C(C)CC)C1=O (centres undefined),IC50,DU-145,250 nM
same,IC50,PC-3,830 nM
CCC(C)n1ccnc1/C=C1\CN(C)C/C(=C\c2nccn2C(C)CC)C1=O (centres undefined),IC50,DU-145,10 nM
same,IC50,PC-3,6630 nM
CN1C/C(=C\c2nccs2)C(=O)/C(=C/c2nccs2)C1,IC50,DU-145,46 nM
same,IC50,PC-3,420 nM
Cn1cc(/C=C2\CCC/C(=C\c3cnn(C)c3)C2=O)cn1,IC50,DU-145,90000 nM
same,IC50,PC-3,130000 nM
O=C(/C=C/c1ccccn1)/C=C/c1ccccn1,IC50,DU-145,20 nM
same,IC50,A549,51 nM
same,Activity,[1],Non-toxic
same,IC50,PC-3,33 nM
same,IC50,HeLa,120 nM
same,IC50,MDA-MB-231,97 nM
Cc1cc(/C=C2\CCC/C(=C\c3cc(C)no3)C2=O)on1,IC50,DU-145,340 nM
same,IC50,PC-3,54 nM
CC(C)Cn1ccnc1/C=C/C(=O)/C=C/c1nccn1CC(C)C,IC50,DU-145,57 nM
same,IC50,A549,110 nM
same,Activity,[1],Non-toxic
same,IC50,PC-3,46 nM
same,IC50,HeLa,390 nM
same,IC50,MDA-MB-231,150 nM
Cn1nccc1/C=C1\CCC/C(=C\c2ccnn2C)C1=O,IC50,DU-145,730 nM
same,IC50,PC-3,260 nM
Cc1nc(/C=C2\CN(C)C/C(=C\c3coc(C)n3)C2=O)co1,IC50,DU-145,76 nM
same,IC50,PC-3,310 nM
Cn1ccnc1/C=C1\CCC/C(=C\c2nccn2C)C1=O,IC50,DU-145,630 nM
same,IC50,PC-3,94 nM
Cc1nc(/C=C2\CCC/C(=C\c3coc(C)n3)C2=O)co1,IC50,DU-145,1650 nM
same,IC50,PC-3,1970 nM
COc1cc(/C=C/C(=O)CC(=O)/C=C/c2ccc(O)c(OC)c2)ccc1O [CURCUMIN],IC50,DU-145,300 nM
same,IC50,A549,15000 nM
same,IC50,PC-3,1980 nM
same,IC50,HeLa,12600 nM
same,IC50,MDA-MB-231,880 nM
CC(C)n1ccnc1/C=C1\CCC/C(=C\c2nccn2C(C)C)C1=O,IC50,DU-145,100 nM
same,IC50,PC-3,160 nM
Cn1nccc1/C=C/C(=O)/C=C/c1ccnn1C,IC50,DU-145,160 nM
same,IC50,PC-3,130 nM
CC(C)n1ccnc1/C=C/C(=O)/C=C/c1nccn1C(C)C,IC50,DU-145,54 nM
same,IC50,PC-3,89 nM
Cc1cc(/C=C2\CCC/C(=C\c3cc(C)on3)C2=O)no1,IC50,DU-145,70 nM
same,IC50,PC-3,71 nM
CN1C/C(=C\c2nccn2C)C(=O)/C(=C/c2nccn2C)C1,IC50,DU-145,130 nM
same,IC50,PC-3,93 nM
Cc1cc(/C=C2\CN(C)C/C(=C\c3cc(C)on3)C2=O)no1,IC50,DU-145,34 nM
same,IC50,PC-3,140 nM
O=C1/C(=C/c2nccs2)CCC/C1=C\c1nccs1,IC50,DU-145,120 nM
same,IC50,PC-3,110 nM
O=C(/C=C/c1cscn1)/C=C/c1cscn1,IC50,DU-145,96 nM
same,IC50,PC-3,94 nM
CN1C/C(=C\c2cnn(C)c2)C(=O)/C(=C/c2cnn(C)c2)C1,IC50,PC-3,76000 nM
Cc1cc(/C=C/C(=O)/C=C/c2cc(C)no2)on1,IC50,DU-145,16 nM
same,IC50,A549,160 nM
same,Activity,[1],Non-toxic
same,IC50,PC-3,41 nM
same,IC50,HeLa,190 nM
same,IC50,MDA-MB-231,156 nM
CCC(C)n1ccnc1/C=C/C(=O)/C=C/c1nccn1C(C)CC (centres undefined),IC50,DU-145,35 nM
same,IC50,A549,100 nM
same,Activity,[1],Non-toxic
same,IC50,PC-3,63 nM
same,IC50,HeLa,62 nM
same,IC50,MDA-MB-231,130 nM
CC(C)Cn1ccnc1/C=C1\CCC/C(=C\c2nccn2CC(C)C)C1=O,IC50,DU-145,360 nM
same,IC50,PC-3,470 nM
Cc1cc(/C=C/C(=O)/C=C/c2cc(C)on2)no1,IC50,DU-145,42 nM
same,IC50,PC-3,250 nM
CC(C)n1ccnc1/C=C1\CN(C)C/C(=C\c2nccn2C(C)C)C1=O,IC50,DU-145,140 nM
same,IC50,PC-3,110 nM
Cn1ccnc1/C=C/C(=O)/C=C/c1nccn1C,IC50,DU-145,57 nM
same,IC50,PC-3,110 nM
CN1C/C(=C\c2ccnn2C)C(=O)/C(=C/c2ccnn2C)C1,IC50,DU-145,1640 nM
same,IC50,PC-3,1020 nM
O=C(/C=C/c1nccs1)/C=C/c1nccs1,IC50,DU-145,55 nM
same,IC50,PC-3,68 nM
Cc1cc(/C=C2\CN(C)C/C(=C\c3cc(C)no3)C2=O)on1,IC50,DU-145,690 nM
same,IC50,PC-3,130 nM
